Where “and” joins values, the source holds several entries; their conditions need not be identical. Equal values may be shown once. Inconclusive results and toxic doses are left out. Cut-off read from the data, not from the text of the source: active = T/C of 150% or more; inactive = T/C below 125%.
System: L1210 leukemia ip in BDF1 mice, survival T/C
Experiment: NCI In Vivo Anticancer Drug Screen. Data for tumor model L1210 Leukemia (intraperitoneal) in B6D2F1 (BDF1) mice
Details: endpoint: mean survival time, higher = longer survival
Outline: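 Tumor cells were implanted, animals were treated, and survival was followed. The result divides the treated measurement by the vehicle-control measurement.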

[1] = dose: 50.0 mg/kg/injection, schedule: Q04DX002 (ip), vehicle: saline with Tween-80
[2] = dose: 100.0 mg/kg/injection, schedule: Q04DX002 (ip), vehicle: saline with Tween-80
[3] = dose: 200.0 mg/kg/injection, schedule: Q04DX002 (ip), vehicle: saline with Tween-80
[4] = dose: 400.0 mg/kg/injection, schedule: Q04DX002 (ip), vehicle: saline with Tween-80
[5] = dose: 100.0 mg/kg/injection, schedule: Q04DX003 (ip), vehicle: Klucel (hydroxypropylcellulose) (HPC)
[6] = dose: 200.0 mg/kg/injection, schedule: Q04DX003 (ip), vehicle: Klucel (hydroxypropylcellulose) (HPC)
[7] = dose: 400.0 mg/kg/injection, schedule: Q04DX003 (ip), vehicle: Klucel (hydroxypropylcellulose) (HPC)
[8] = dose: 100.0 mg/kg/injection, schedule: Q01DX009 (ip), vehicle: Klucel (hydroxypropylcellulose) (HPC)
[9] = dose: 200.0 mg/kg/injection, schedule: Q01DX009 (ip), vehicle: Klucel (hydroxypropylcellulose) (HPC)
[10] = dose: 400.0 mg/kg/injection, schedule: Q01DX009 (ip), vehicle: Klucel (hydroxypropylcellulose) (HPC)
[11] = dose: 100.0 mg/kg/injection, schedule: Q04DX002 (ip), vehicle: saline
[12] = dose: 200.0 mg/kg/injection, schedule: Q04DX002 (ip), vehicle: saline
[13] = dose: 100.0 mg/kg/injection, schedule: Q01DX001 (ip), vehicle: carboxymethylcellulose (CMC)
[14] = dose: 200.0 mg/kg/injection, schedule: Q01DX001 (ip), vehicle: carboxymethylcellulose (CMC)
[15] = dose: 400.0 mg/kg/injection, schedule: Q01DX001 (ip), vehicle: carboxymethylcellulose (CMC)

Measured: T/C

CC1(C)N=C(N)N=C(N)N1c1cccc(CCCCc2cccc(S(=O)(=O)F)c2)c1
inactive: dose: 6.25 mg/kg/injection, schedule: Q01DX009 (ip), vehicle: saline sonified 100 % of control | dose: 6.25 mg/kg/injection, schedule: Q04DX003 (ip), vehicle: saline sonified 93 % of control | dose: 12.5 mg/kg/injection, schedule: Q01DX009 (ip), vehicle: saline sonified 88 % of control | dose: 12.5 mg/kg/injection, schedule: Q04DX003 (ip), vehicle: saline sonified 98 % of control | dose: 25.0 mg/kg/injection, schedule: Q01DX009 (ip), vehicle: saline sonified 92 % of control | dose: 25.0 mg/kg/injection, schedule: Q04DX003 (ip), vehicle: saline sonified 93 % of control

Cc1cccc(-c2nnc(-c3cccc(C)n3)o2)n1
inactive: [1] 92 % of control | [2] 95 % of control | [3] 92 % of control | [4] 87 % of control

Cc1cc(C)nc(NS(=O)(=O)c2ccc(NC(=O)Nc3ccc(F)cc3F)cc2)n1
inactive: dose: 50.0 mg/kg/injection, schedule: Q01DX009 (ip), vehicle: saline with Tween-80 96 % of control | dose: 100.0 mg/kg/injection, schedule: Q01DX009 (ip), vehicle: saline with Tween-80 93 % of control | dose: 200.0 mg/kg/injection, schedule: Q01DX009 (ip), vehicle: saline with Tween-80 101 % of control

FC(F)(F)c1cc(Cl)ccc1Cl
inactive: dose: 80.0 mg/kg/injection, schedule: Q01DX009 (ip), vehicle: Klucel (hydroxypropylcellulose) (HPC) 100 % of control | [5] 101 % of control and 106 % of control | dose: 160.0 mg/kg/injection, schedule: Q01DX009 (ip), vehicle: Klucel (hydroxypropylcellulose) (HPC) 102 % of control | [6] 92 % of control and 104 % of control | dose: 320.0 mg/kg/injection, schedule: Q01DX009 (ip), vehicle: Klucel (hydroxypropylcellulose) (HPC) 111 % of control | [7] 99 % of control and 102 % of control

CC12CCC(=O)C=C1CCC1C2C(O)CC2(C)C1CCC2(O)C(=O)CSc1ncnc2nc[nH]c12 (centres undefined)
inactive: dose: 50.0 mg/kg/injection, schedule: Q01DX001 (sc), vehicle: steriod suspending solution 96 % of control | dose: 100.0 mg/kg/injection, schedule: Q01DX001 (sc), vehicle: steriod suspending solution 94 % of control and 108 % of control | dose: 200.0 mg/kg/injection, schedule: Q01DX001 (sc), vehicle: steriod suspending solution 105 % of control and 108 % of control | dose: 400.0 mg/kg/injection, schedule: Q01DX001 (sc), vehicle: steriod suspending solution 97 % of control and 102 % of control

CN(C)Cc1ccnc(Cl)n1
inactive: dose: 2.0 mg/kg/injection, schedule: Q01DX Z (ip), vehicle: methylcellulose (MC) 93 % of control

CC1CC(C)(C)N=C(CCCO)O1 (centres undefined)
inactive: [1] 104 % of control | [2] 96 % of control | [3] 104 % of control | [4] 100 % of control

Cc1ccc(S(=O)(=O)N=N/C=C2/C=CC=CN2O)cc1
inactive: dose: 40.0 mg/kg/injection, schedule: Q01DX009 (ip), vehicle: saline 93 % of control | dose: 60.0 mg/kg/injection, schedule: Q01DX009 (ip), vehicle: saline 96 % of control | dose: 90.0 mg/kg/injection, schedule: Q01DX009 (ip), vehicle: saline 94 % of control | dose: 135.0 mg/kg/injection, schedule: Q01DX009 (ip), vehicle: saline 104 % of control | dose: 175.0 mg/kg/injection, schedule: Q01DX009 (ip), vehicle: saline with Tween-80 111 % of control

C[N+]1(CC(=O)c2ccc(CCc3ccc(C(=O)C[N+]4(C)CCCCC4)cc3)cc2)CCCCC1
inactive: dose: 0.78 mg/kg/injection, schedule: Q01DX009 (ip), vehicle: saline 117 % of control | dose: 0.78 mg/kg/injection, schedule: Q04DX002 (ip), vehicle: saline 101 % of control | dose: 1.56 mg/kg/injection, schedule: Q01DX009 (ip), vehicle: saline 106 % of control | dose: 1.56 mg/kg/injection, schedule: Q04DX002 (ip), vehicle: saline 95 % of control | dose: 3.12 mg/kg/injection, schedule: Q01DX009 (ip), vehicle: saline 92 % of control | dose: 3.12 mg/kg/injection, schedule: Q04DX002 (ip), vehicle: saline 98 % of control and 105 % of control

O=S(=O)(N=C1C(Cl)=C(Cl)C(=NS(=O)(=O)c2ccccc2)C(Cl)=C1Cl)c1ccccc1
inactive: [8] 98 % of control | [9] 100 % of control | [10] 101 % of control

NC1=Nc2cccc3cccc(c23)N1
inactive: dose: 12.5 mg/kg/injection, schedule: Q01DX009 (ip), vehicle: Klucel (hydroxypropylcellulose) (HPC) 95 % of control | dose: 12.5 mg/kg/injection, schedule: Q04DX003 (ip), vehicle: Klucel (hydroxypropylcellulose) (HPC) 95 % of control | dose: 25.0 mg/kg/injection, schedule: Q01DX009 (ip), vehicle: Klucel (hydroxypropylcellulose) (HPC) 93 % of control | dose: 25.0 mg/kg/injection, schedule: Q04DX003 (ip), vehicle: Klucel (hydroxypropylcellulose) (HPC) 92 % of control | dose: 50.0 mg/kg/injection, schedule: Q01DX009 (ip), vehicle: Klucel (hydroxypropylcellulose) (HPC) 90 % of control | dose: 50.0 mg/kg/injection, schedule: Q04DX003 (ip), vehicle: Klucel (hydroxypropylcellulose) (HPC) 98 % of control

O=P(O)(O)OCC1OC(n2cnc3c(Cl)ncnc32)C(O)C1O (centres undefined)
inactive: dose: 50.0 mg/kg/injection, schedule: Q04DX002 (ip), vehicle: saline 115 % of control | [11] 100 % of control | [12] 123 % of control

CCOC(=O)Nc1cc2c(c(N)n1)N=C(CN(C)c1ccc(C(=O)OC)cc1)CN2
inactive: dose: 5.0 mg/kg/injection, schedule: Q01DX009 (ip), vehicle: saline with Tween-80 105 % of control | dose: 10.0 mg/kg/injection, schedule: Q01DX009 (ip), vehicle: saline with Tween-80 118 % of control | dose: 20.0 mg/kg/injection, schedule: Q01DX009 (ip), vehicle: saline with Tween-80 124 % of control | dose: 100.0 mg/kg/injection, schedule: Q01DX001 (ip), vehicle: other 107 % of control | dose: 200.0 mg/kg/injection, schedule: Q01DX001 (ip), vehicle: other 111 % of control

CCCCC(=O)N1CCCC1
inactive: [11] 96 % of control | [12] 92 % of control | dose: 400.0 mg/kg/injection, schedule: Q04DX002 (ip), vehicle: saline 111 % of control

COC(=O)C(Cc1c[nH]c2ccccc12)NC(=O)C(NC(=O)OC(C)(C)C)C(C)C (centres undefined)
inactive: [13] 100 % of control | [14] 94 % of control | [15] 92 % of control

COc1cccc(/C=c2\[nH]c(=O)/c(=C/c3cccc(OC)c3OC)[nH]c2=O)c1OC
inactive: [8] 94 % of control | [5] 88 % of control | [9] 87 % of control | [6] 91 % of control | [10] 96 % of control | [7] 91 % of control

CC(NC(=O)c1cnc2ccccc2n1)C(=O)NCC(=O)O (centres undefined)
inactive: [13] 93 % of control | [14] 89 % of control | [15] 94 % of control

CC(C)(C)NC(=O)Nc1cccc(O)c1
inactive: [8] 95 % of control | [9] 100 % of control | [10] 104 % of control

FC1=C(F)C2(F)C3CCC(O3)C2(F)C(Br)=C1F (centres undefined)
inactive: dose: 100.0 mg/kg/injection, schedule: Q01DX001 (ip), vehicle: Klucel (hydroxypropylcellulose) (HPC) 99 % of control | [5] 101 % of control | dose: 200.0 mg/kg/injection, schedule: Q01DX001 (ip), vehicle: Klucel (hydroxypropylcellulose) (HPC) 91 % of control | [6] 101 % of control | dose: 400.0 mg/kg/injection, schedule: Q01DX001 (ip), vehicle: Klucel (hydroxypropylcellulose) (HPC) 100 % of control | [7] 98 % of control

COc1ccc(OC)c(C(=O)CC(O)(C(F)(F)F)C(F)(F)F)c1
inactive: dose: 100.0 mg/kg/injection, schedule: Q04DX003 (ip), vehicle: saline with Tween-80 94 % of control | dose: 200.0 mg/kg/injection, schedule: Q04DX003 (ip), vehicle: saline with Tween-80 90 % of control | dose: 400.0 mg/kg/injection, schedule: Q04DX003 (ip), vehicle: saline with Tween-80 99 % of control

COc1ccc(P(=NS(=O)(=O)c2ccc(C)cc2)(c2ccc(OC)cc2)c2ccc(OC)cc2)cc1
inactive: [5] 91 % of control | [6] 96 % of control

O=[N+]([O-])c1cc(Br)cc2c1nc(Cl)c1ccccc12
inactive: [5] 98 % of control | [6] 101 % of control | [7] 98 % of control

CC(C)(C)OC(=O)C(CSSCC(NC(=O)OCc1ccccc1)C(=O)OC(C)(C)C)NC(=O)OCc1ccccc1 (centres undefined)
inactive: [8] 98 % of control | [5] 98 % of control | [9] 107 % of control | [6] 96 % of control | [10] 107 % of control | [7] 96 % of control

Reference: PubChem BioAssay AID248 (DTP/NCI, 2004)
